# Source: patent US20070243201A1, “Method for Selecting Epitopes for Immunotherapy” (Igeneon Krebs-Immuntherapie Forschungs-und entwicklungs-AG, priority 2003, published 2007)
# Tested on: immune serum
# Assay: Ep-CAM epitope mapping by solid phase peptide (spot) synthesis: binding of biotinylated serum IgG to immobilized decapeptides
# Details: immune serum of a patient after active immunotherapy with mAb17-1A (EpCAM antibody), taken 71 days after immunization; compared with pre-serum of day 1, which does not show this binding or shows it to a slight degree only; FIG. 1
# Description: Protein G Sepharose Fast Flow (Amersham Biosciences) was packed into an HR 5 column (inner diameter 5 mm; Amersham Biosciences). The column was equilibrated with 5 column volumes of PBS buffer at a flow rate of 0.33 ml/min. Subsequently, serum was loaded at the same flow rate, followed by washing with further 5 column volumes. Elution was carried out with 0.2 M acetic acid +20% ethylene glycol, pH 2.7. The eluate was taken up in 1 M sodium bicarbonate buffer and thus brought to pH 8.6.
# One aliquot of the purified serum was incubated with NHS-LC biotin for 1 h at room temperature. Subsequently, the sample was re-buffered via a Sephadex G25 gel filtration column (PD-10, Amersham Biosciences) so as to separate the biotinylated […] from free […], on the one hand, and to further transfer it into a medium suitable for the test system.
# The spot synthesis was carried out by means of a modified method according to Frank (Tetrahedron 48 (1992) 9217-9232). Whatman 540 cellulose was dried over night in the desiccator. The membrane was then functionalized for 3 h with 0.2 M Fmoc-β alanine, 0.24 M diisopropyl carbodiimide and 0.4 M 1-methyl-imidazole. After washing with 3× dimethylformamide (DMF), the Fmoc group was cleaved off by treatment with 20% piperidine in DMF. The peptides were synthesized by means of the AutoSpot Robot ASP222 (INTAVIS, Germany). As the first amino acid, always a further β-alanine spacer was introduced. After the first β-alanine coupling, the remaining free amino groups were acetylated with 2% acetic anhydride. As the amino acids, Fmoc-protected Opfp esters of the amino acids (O-pentafluorophenyl, Novabiochem), dissolved in N-methyl pyrrolidone at a concentration of 0.3 M were used. Each amino acid was spotted twice per cycle. After each cycle, the Fmoc group was cleaved off with piperidine, as described above, and then the membrane was washed 6× with DMF. After the synthesis of the last amino acid, it was again acetylated, and then the side protection groups were cleaved off. At first, the membrane was treated with 90% trifluoroacetic acid, 3% triisobutyl silane, 1% phenol, 2% water and 4% dichloromethane for 30 minutes. Subsequently, the membrane was washed 5× with DCM, 3× with DMF and methanol and dried. This was followed by a further cleavage by treatment with 50% trifluoroacetic acid, 3% triisobutyl silane, 1% phenol, 2% water and 44% dichloromethane for two hours. […]
# Since the major immune response is provided in the form of IgG, IgG was purified from the sera via protein G Sepharose. […] The concentration of the biotinylated IgG was determined via photometric absorption measurement at 280 nm, and after the addition of 0.2% sodium azide the material was stored at 4° C. […]
row,binding of immune serum to the 10 mer peptides,Sequence
1,increasingly binds,DLDPGQTLIY [compound 61]
2,increasingly binds,DPKFITSILY [compound 45]
3,increasingly binds,IADVAYYFEK [compound 53]
4,increasingly binds,ALQKEITTRY [compound 42]
